What was measured:
[1] = Plasma protein binding, equilibrium dialysis (rat); type: in vitro ADME; settings: 1 μM, 6 hours dialysis
Description: Preparation of 100 mM sodium phosphate and 150 mM NaCl buffer (PBS). A basic solution was prepared by dissolving 14.2 g/L Na2HPO4 and 8.77 g/L NaCl in deionized water and the solution could be stored at 4° C. for up to 7 days. An acidic solution was prepared by dissolving 12.0 g/L NaH2PO4 and 8.77 g/L NaCl in deionized water and the solution could be stored at 4° C. for up to 7 days. The basic solution was titrated with the acidic solution to pH 7.4 and store at 4° C. for up to 7 days. pH was checked on the day of experiment and was adjusted if outside specification of 7.4±0.1.
Thawing of the frozen plasma (stored at −80° C.). Frozen plasma was thawed immediately at room temperature. The plasma was centrifuged at 3,220 g for 10 minutes to remove clots and supernatant was collected into a fresh tube. The pH of the plasma was checked and recorded. Note: a). Only use plasma that has been thawed no more than twice since arrival. b). Only use plasma within the range of pH 7 to pH 8.
Preparation of working solutions. The working solutions of test compound and control compound ketoconazole were prepared in DMSO at the concentration of 200 μM. And then 3 μL of working solutions was removed to mix with 597 μL of rat plasma to achieve a final concentration of 1 μM (0.5% DMSO). Plasma samples were vortexed thoroughly.
Preparation of dialysis membranes. […]

[2] = Rat pharmacokinetic study (plasma); type: in vivo, male SD rats
Description: (§1) The rat pharmacokinetics studies of exemplary compounds 03-3, 03-5, and 03-115 were conducted with male SD rats. These rats were typically about 6-8 weeks old, weighing 200 g to 300 g. Animals were fasted overnight and free access to food 4 hours after dosing. A required volume of vehicle was added to reach the target concentration of the test article and vehicle component to prepare for the dosing. The dosing vehicle was PEG400 or 30% PEG400 in saline for IV, or 0.5% methylcellulose in water for PO. For IV dosing, the animals were administered intravenously via tail vein. For PO dosing, the animals were administered via oral gavage. After dosing, blood sample was collected (˜0.2 mL per time point) through jugular vein or heart puncture. Blood of each sample was transferred into plastic micro centrifuge tubes containing EDTA-K2. Collection tubes with blood samples and anticoagulant were inverted several times for proper mixing of the tube contents and then placed on wet ice. The blood samples were centrifuged at 2000 g for 5 minutes at 4° C. to obtain plasma which was stored in a freezer at −75±15° C. prior to analysis. Samples were analyzed using LC-MS/MS. WinNonlin were used for pharmacokinetic calculations.

[3] = Mouse CNS exposure (plasma, CSF, brain); type: in vivo, male C57BL/6J mice; settings: SC 1 mg/kg, 60 min
Description: as §1, with “These” for “The rat pharmacokinetics studies of exemplary compounds 03-3, 03-5, and 03-115 were conducted with male SD rats. These”
For CSF sampling, after anesthesia, the foramen magnum was exposed, and a syringe was used with a venoclysis needle to sample the CSF. The CSF samples were stored in polypropylene tubes, then stored in a freezer at −75±15° C. prior to analysis.
For brain sampling, the rats were fully exsanguinated by using a risen of carbon dioxide prior to brain collection. Brain samples were then collected at adopted time point, quick frozen and kept at −75±15° C. All brain samples were weighted and homogenated with PBS by brain weight (g) to PBS volume (mL) ratio 1:3 before analysis. The actual concentration is the detected value multiplied by the dilution factor.
These mice were typically about 6-8 weeks old, weighing 20 g to 30 g. Animals were free access to food before dosing. Sample amount was ˜0.03 mL per time point and sample site was dorsal metatarsal or heart puncture.

[4] = Monkey pharmacokinetic study; type: in vivo, male Non-Naïve Cynomolgus Monkeys; settings: PO 0.3 mg/kg
Description: as §1
Monkey pharmacokinetics studies of exemplary compounds 03-3, 03-5, and 03-115 were conducted substantially similarly to the rat pharmacokinetic studies, instead using male Non-Naïve Cynomolgus Monkeys. Animals for PO studies were food fasted overnight prior to dosing and were fed approximately 2 hours after dosing. Animals for IV studies had free access to food and water. Blood samples were collected through venipuncture of peripheral veins except the dosing vein.

With Cc1ncccc1[C@@H](O)CNC(C)(C)C [Compound 03-115] the “PPB (rat), Percent of Unbound Fractions” value [1] was 97%, the AUCInf ([2]; IV 1 mg/kg) was 164 ng·h/mL and the C0 ([2]; IV 1 mg/kg) was 512 ng/mL. The T1/2 ([2]; IV 1 mg/kg) was 0.36 h, the Vss_obs ([2]; IV 1 mg/kg) was 2.4 L/kg and the AUCInf ([2]; PO 5 mg/kg) was 192 ng·h/mL. For the same compound, the Cmax ([2]; PO 5 mg/kg) was 174 ng/mL, the MRTInf_obs ([2]; PO 5 mg/kg) was 1.06 h and the T1/2 ([2]; PO 5 mg/kg) was 1.61 h. For the same compound, the Tmax ([2]; PO 5 mg/kg) was 0.25 h, the “Concentration, Brain” value [3] was 280 ng/g and the “Concentration, CSF” value [3] was 157 ng/mL. For the same compound, the “Concentration, Plasma” value [3] was 270 ng/mL, the AUCInf [4] was 261 ng·h/mL and the Cmax [4] was 67 ng/mL. It also gave an MRTInf_obs [4] of 3.46 h and a Tmax [4] of 1.17 h.

Source: US12448352B2, “Beta adrenergic agonist and methods of using the same” (Curasen Therapeutics, Inc., priority 2019, dated 2025)
